Assay results as given in patent US6022969A, “Compositions and methods for treating mast-cell mediated conditions” (AXYS Pharmaceuticals, Inc., priority 1995, dated 2000).

target: tryptase; assay: In vitro tryptase inhibition assay (hydrolysis of tosyl-Gly-Pro-Lys-p-nitroanilide); type: biochemical, human; conditions: tosyl-Gly-Pro-Lys-p-nitroanilide 0.5 mM, pH 8.2, 1 h pre-incubation, room temperature
Experimental: The compounds to be assayed (approximately 1 mg) were dissolved in 200 μL dimethylsulfoxide (DMSO) and diluted 1:10 into buffer containing 50 millimolar (mM) Tris-HCl (pH 8.2), 100 mM sodium chloride, and 0.05% polyoxyethylenesorbitan monolaurate (Tween-20®, available from Sigma, St. Louis, Mo.). Seven additional threefold dilutions were made from the initial dilution into the same buffer supplemented with 10% DMSO. Aliquots (50 microliters, μL) from each of the eight dilutions in the series were transferred to individual wells in a 96-well U-bottom microtiter plate. 25 μL of a stock solution of tryptase was added to each well and the samples were mixed and incubated for one hour at room temperature (tryptase was purified from human lung and skin tissue preparations, HMC-1 (human mast cell line) and also obtained from commercial sources (ICN Biomedicals, Irvine, Calif.; Athens Research & Technology, Athens, Ga.)). […] The tryptase solution was prepared by placing 60 μg/mL of tryptase into solution with 10 mM MES (2-[N-Morpholino]ethane sulfonic acid) containing 2 mM CaCl2, 20% glycerol and 50 μg/mL heparin. The enzyme reaction was initiated with the addition of the synthetic tripeptide substrate, tosyl-Gly-Pro-Lys-p-nitroanilide (available from Sigma, 25 μL; 0.5 mM final concentration).
However, Ki ' varies with the enzyme concentration used in the enzyme assay. […] The y-intercept of a replot of IC50 (ordinate) versus tryptase concentration (abscissa) produces a value for Ki '.
The inhibition constants (Ki ', micromolar (μM)) were determined for the compounds of the present invention.

Ki	SMILES
302 nM	NCC12CCC(CNC(=O)N3CCN(C(=O)O[C@H]4CCC[C@@H](OC(=O)N5CCN(C(=O)NCC67CCC(CN)(CC6)CC7)CC5)CCC4)CC3)(CC1)CC2 (relative stereo) [Compound 15, cis-1,5-cyclooctylene[4-(4-aminomethylbicyclo[2.2.2]oct-1-ylmethylcarbamoyl)-1-piperazinecarboxylate]]
4 nM	N=C(N)Nc1ccc(CNC(=O)CNC(=O)OC[C@H]2CC[C@H](COC(=O)NCC(=O)NCc3ccc(NC(=N)N)cc3)CC2)cc1 [Compound 1, trans-1,4-Cyclohexylenedimethylene bis(4-guanidinobenzylcarbamoylmethylaminocarboxylate)]
2 nM	N=C(N)Nc1ccc(CNC(=O)CNC(=O)O[C@H]2CCC[C@@H](OC(=O)NCC(=O)NCc3ccc(NC(=N)N)cc3)CCC2)cc1 [Compound 2, cis-1,5-Cyclooctylene bis(4-guanidinobenzylcarbamoylmethylaminocarboxylate)]
15.8 nM	NC[C@H]1CC[C@H](CNC(=O)N2CCN(C(=O)O[C@H]3CCC[C@@H](OC(=O)N4CCN(C(=O)NC[C@H]5CC[C@H](CN)CC5)CC4)CCC3)CC2)CC1 [Compound 4, cis-1,5-Cyclooctylene bis[4-((trans-4-aminomethylcyclohexylenemethylene)carbamoyl)-1-piperazinecarboxylate]]
2 nM	N=C(N)N1CCC(CCC(=O)N2CCN(C(=O)O[C@H]3CCC[C@@H](OC(=O)N4CCN(C(=O)CCC5CCN(C(=N)N)CC5)CC4)CCC3)CC2)CC1 [Compound 5, cis-1,5-cyclooctylene bis{4-[3-(1-amidinopiperid-4-yl)propionoyl]-1-piperazinecarboxylate}]
0.37 nM	N=C(N)c1ccc(CCC(=O)N2CCN(C(=O)O[C@H]3CCC[C@@H](OC(=O)N4CCN(C(=O)CCc5ccc(C(=N)N)cc5)CC4)CCC3)CC2)cc1 [Compound 6, cis-1,5-cyclooctylene bis{4-[3(4-amidinophenyl)propionoyl]-1-piperazinecarboxylate}]
5 nM	N=C(N)N1CCC(CC(=O)N2CCN(C(=O)O[C@H]3CCC[C@@H](OC(=O)N4CCN(C(=O)CC5CCN(C(=N)N)CC5)CC4)CCC3)CC2)CC1 [Compound 7, cis-1,5-cyclooctylene bis{[4-(1-amidinopiperid-4-ylacetyl)-1-piperazinecarboxylate]}]
30 nM	N=C(N)N1CCC(CCNC(=O)N2CCN(C(=O)O[C@H]3CCC[C@@H](OC(=O)N4CCN(C(=O)NCCC5CCN(C(=N)N)CC5)CC4)CCC3)CC2)CC1 [Compound 8, cis-1,5-cyclooctylene bis{4-[2-(1-amidinopiperid-4-yl)ethylcarbamoyl]-1-piperazinecarboxylate}]
493 nM	NC[C@H]1CC[C@H](C(=O)N2CCN(C(=O)O[C@H]3CCC[C@@H](OC(=O)N4CCN(C(=O)[C@H]5CC[C@H](CN)CC5)CC4)CCC3)CC2)CC1 [Compound 9, cis-1,5-cyclooctylene bis[4-(trans-4-aminomethylcyclohexylcarbonyl)-1-piperazinecarboxylate]]
0.47 nM	N=C(N)Nc1ccc(CC(=O)N2CCN(C(=O)O[C@H]3CCC[C@@H](OC(=O)N4CCN(C(=O)Cc5ccc(NC(=N)N)cc5)CC4)CCC3)CC2)cc1 [Compound 10, cis-1,5-cyclooctylene bis[4-(4-guanidinophenylacetyl)-1-piperazinecarboxylate]]
207 nM	N=C(N)Nc1ccc(CCC(=O)N2CCN(C(=O)O[C@H]3CCC[C@@H](OC(=O)N4CCN(C(=O)CCc5ccc(NC(=N)N)cc5)CC4)CCC3)CC2)cc1 [Compound 11, cis-1,5-cyclooctylene bis[4-[3-(4-guanidinophenyl)propionyl]-1-piperazinecarboxylate}]
260 nM	NC[C@H]1CC[C@H](CNC(=O)N2CCCN(C(=O)O[C@H]3CCC[C@@H](OC(=O)N4CCCN(C(=O)NC[C@H]5CC[C@H](CN)CC5)CC4)CCC3)CC2)CC1 [Compound 12, cis-1,5-cyclooctylene bis[4-(trans-4-aminomethylcyclohexylmethylcarbamoyl)-1-(perhydro-7H-1,4-diazepine)carboxylate]]
0.13 nM	NCc1ccc(CNC(=O)N2CCN(C(=O)O[C@H]3CCC[C@@H](OC(=O)N4CCN(C(=O)NCc5ccc(CN)cc5)CC4)CCC3)CC2)cc1 [Compound 13, cis-1,5-cyclooctylene bis[4-(4-aminomethylbenzylcarbamoyl)-1-piperazinecarboxylate]]
1300 nM	NCCc1ccc(CNC(=O)N2CCN(C(=O)O[C@H]3CCC[C@@H](OC(=O)N4CCN(C(=O)NCc5ccc(CCN)cc5)CC4)CCC3)CC2)cc1 [Compound 14, cis-1,5-cyclooctylene bis{4-[4-(2-aminoethyl)benzylcarbamoyl]-1-piperazinecarboxylate]]
1.5 nM	NCCc1ccc(CC(=O)N2CCN(C(=O)O[C@H]3CCC[C@@H](OC(=O)N4CCN(C(=O)Cc5ccc(CCN)cc5)CC4)CCC3)CC2)cc1 [Compound 16]
4.9 nM	NCCc1ccc(C(=O)N2CCN(C(=O)O[C@H]3CCC[C@@H](OC(=O)N4CCN(C(=O)c5ccc(CCN)cc5)CC4)CCC3)CC2)cc1 [Compound 17, cis-1,5-cyclooctylene bis{4-[4-(2-aminoethyl)benzoyl]-1-piperazinecarboxylate]]
713 nM	CC(CN)c1ccc(C(=O)N2CCN(C(=O)O[C@H]3CCC[C@@H](OC(=O)N4CCN(C(=O)c5ccc(C(C)CN)cc5)CC4)CCC3)CC2)cc1 (stereo partly drawn) [Compound 18, cis-1,5-cyclooctylene bis{4-[4-(1-aminoprop-2-yl)benzoyl]-1-piperazinecarboxylate}]
1510 nM	NCCC1CCN(C(=O)N2CCN(C(=O)O[C@H]3CCC[C@@H](OC(=O)N4CCN(C(=O)N5CCC(CCN)CC5)CC4)CCC3)CC2)CC1 [Compound 19]
0.81 nM	NCC[C@H]1CC[C@H](CC(=O)N2CCN(C(=O)O[C@H]3CCC[C@@H](OC(=O)N4CCN(C(=O)C[C@H]5CC[C@H](CCN)CC5)CC4)CCC3)CC2)CC1 [Compound 20, cis-1,5-cyclooctylene bis{4-[trans-4-(2-aminoethyl)cyclohexylacetyl]-1-piperazinecarboxylate}]
9 nM	NCCC1CCC(C(=O)N2CCN(C(=O)O[C@H]3CCC[C@@H](OC(=O)N4CCN(C(=O)C5CCC(CCN)CC5)CC4)CCC3)CC2)CC1 (stereo partly drawn) [Compound 22, cis-1,5-cyclooctylene bis{4-[4-(2-aminoethyl)cyclohexylcarbonyl]-1-piperazinecarboxylate]]
119 nM	NCC1CCN(C(=O)NCC2CCN(C(=O)OC[C@H]3CC[C@H](COC(=O)N4CCC(CNC(=O)N5CCC(CN)CC5)CC4)CC3)CC2)CC1 [Compound 23, trans-1,4-cyclohexylenedimethylene bis{4-[4(aminomethyl)piperid-1-ylcarbonylaminomethyl]-1-piperidinecarboxylate}]
0.16 nM	N=C(N)c1ccc(CC(=O)N2CCN(C(=O)O[C@H]3CCC[C@@H](OC(=O)N4CCN(C(=O)Cc5ccc(C(=N)N)cc5)CC4)CCC3)CC2)cc1 [Compound 24, cis-1,5-cyclooctylene bis[4-(4-amidinophenylacetyl)-1-piperazinecarboxylate)]
734 nM	NCC1CCN(C(=O)NCCCCNC(=O)O[C@H]2CCC[C@@H](OC(=O)NCCCCNC(=O)N3CCC(CN)CC3)CCC2)CC1 [Compound 25, cis-1,5-cyclooctylene bis{4-[4-(aminomethyl)piperid-1-ylcarbonylamino]butylaminocarboxylate}]
